# Source: US10800785B2, “Substituted pyrrolo[2,3-d]pyridazin-4-ones and pyrazolo[3,4-d]pyridazin-4-ones as protein kinase inhibitors” (Shanghai Fochon Pharmaceutical Co., Ltd., priority 2016, dated 2020)
# System: DOHH2 cells
# Assay: Cell proliferation assay (MTS) in DOHH2 cells, mechanism-based assay for BTK inhibition
# Conditions: Homo sapiens, DOHH-2, 120 h incubation, 5000 cells/well
# Description: Cell Proliferation Assays
# MTS testing kit was purchased from Promega. The DMEM, Fetal bovine serum and Penicillin-Streptomycin were purchased from Gibco. Dimethyl sulfoxide (DMSO) was purchased from Sigma.
# To investigate whether a compound is able to inhibit the activity of BTK in cells, a mechanism-based assay using DOHH2 (DSMZ catalog#: ACC47) and Mino (ATCC® Number CRL-3000™) cells was developed. In this assay, inhibition of BTK was detected by the inhibition of DOHH2 and Mino cell proliferations. DOHH2 or Mino cells were cultured in culture flasks to 40-80% confluence in RPMI-1640 plus 10% fetal bovine serum. C ells were collected and plated onto 96-well plates at desired cell density (DOHH2: 5000 cells/well; Mino: 10000 cells/well). Plates were incubated overnight at 37° C., with 5% CO2 to adhere. Compounds were added to the plates, and the final compound concentrations were 10000, 3333, 1111, […], 41, 14, 4.6 and 1.5 nM. Plates were placed at 37° C., with 5% CO2 for 120 h (DOHH2) or 72 h (Mino). 20 μl MTS/100 μl medium mixture solution were added to each well and the plates were incubated for exactly 2 hours. The reaction was stopped by adding 25 μl 10% SDS per well.
# Select compounds prepared as described above were assayed according to the biological procedures described herein.
row,SMILES,IC50 [nM]
1,"C=CC(=O)N1CCC[C@H](c2cn(-c3ccc(Oc4ccccc4F)cc3)c3c(N)n[nH]c(=O)c23)C1 [Example 35, (R)-3-(1-acryloylpiperidin-3-yl)-7-amino-1-(4-(2-fluorophenoxy)phenyl)-1,5-dihydro-4H-pyrrolo [2,3-d]pyridazin-4-one]",33
2,"C=CC(=O)N1CCC[C@H](c2cn(-c3ccc(Oc4cccc(F)c4)cc3)c3c(N)n[nH]c(=O)c23)C1 [Example 36, (R)-3-(1-acryloylpiperidin-3-yl)-7-amino-1-(4-(3-fluorophenoxy)phenyl)-1,5-dihydro-4H-pyrrolo [2,3-d]pyridazin-4-one]",585
3,"C=CC(=O)N1CCC[C@H](c2cn(-c3ccc(Oc4cccc(F)c4F)cc3)c3c(N)n[nH]c(=O)c23)C1 [Example 38, (R)-3-(1-acryloylpiperidin-3-yl)-7-amino-1-(4-(2,3-difluorophenoxy)phenyl)-1,5-dihydro-4H-pyrrolo[2,3-d]pyridazin-4-one]",175
4,"C=CC(=O)N1CCC[C@H](c2cn(-c3ccc(Oc4c(F)cccc4F)cc3)c3c(N)n[nH]c(=O)c23)C1 [Example 39, (R)-3-(1-acryloylpiperidin-3-yl)-7-amino-1-(4-(2,6-difluorophenoxy)phenyl)-1,5-dihydro-4H-pyrrolo[2,3-d]pyridazin-4-one]",31
5,"C=CC(=O)N1CCC[C@H](c2cn(-c3ccc(Oc4cc(F)cc(F)c4)cc3)c3c(N)n[nH]c(=O)c23)C1 [Example 40, (R)-3-(1-acryloylpiperidin-3-yl)-7-amino-1-(4-(3,5-difluorophenoxy)phenyl)-1,5-dihydro-4H-pyrrolo[2,3-d]pyridazin-4-one]",375
6,"C=CC(=O)N1CC[C@@H](c2nn(-c3ccc(Oc4ccccc4F)cc3)c3c(N)n[nH]c(=O)c23)C1 [Example 41, (R)-3-(1-acryloylpyrrolidin-3-yl)-7-amino-1-(4-(2-fluorophenoxy)phenyl)-1,5-dihydro-4H-pyrazolo[3,4-d]pyridazin-4-one]",146
7,"C=CC(=O)N1CC[C@@H](c2nn(-c3ccc(Oc4cccc(F)c4F)cc3)c3c(N)n[nH]c(=O)c23)C1 [Example 44, (R)-3-(1-acryloylpyrrolidin-3-yl)-7-amino-1-(4-(2,3-difluorophenoxy)phenyl)-1,5-dihydro-4H-pyrazolo[3,4-d]pyridazin-4-one]",113
8,"C=CC(=O)N1CC[C@@H](c2nn(-c3ccc(Oc4cc(F)cc(F)c4)cc3)c3c(N)n[nH]c(=O)c23)C1 [Example 46, (R)-3-(1-acryloylpyrrolidin-3-yl)-7-amino-1-(4-(3,5-difluorophenoxy)phenyl)-1,5-dihydro-4H-pyrazolo[3,4-d]pyridazin-4-one]",59
9,"C=CC(=O)N1CC[C@H](c2nn(-c3ccc(Oc4ccccc4F)cc3)c3c(N)n[nH]c(=O)c23)C1 [Example 47, (S)-3-(1-acryloylpyrrolidin-3-yl)-7-amino-1-(4-(2-fluorophenoxy)phenyl)-1,5-dihydro-4H-pyrazolo[3,4-d]pyridazin-4-one]",60
10,"C=CC(=O)N1CC[C@H](c2nn(-c3ccc(Oc4cccc(F)c4F)cc3)c3c(N)n[nH]c(=O)c23)C1 [Example 50, (S)-3-(1-acryloylpyrrolidin-3-yl)-7-amino-1-(4-(2,3-difluorophenoxy)phenyl)-1,5-dihydro-4H-pyrazolo[3,4-d]pyridazin-4-one]",678
11,"C=CC(=O)N1CC[C@H](c2nn(-c3ccc(Oc4c(F)cccc4F)cc3)c3c(N)n[nH]c(=O)c23)C1 [Example 51, (S)-3-(1-acryloylpyrrolidin-3-yl)-7-amino-1-(4-(2,6-difluorophenoxy)phenyl)-1,5-dihydro-4H-pyrazolo[3,4-d]pyridazin-4-one]",215
12,"C=CC(=O)N1CC[C@H](c2nn(-c3ccc(Oc4cc(F)cc(F)c4)cc3)c3c(N)n[nH]c(=O)c23)C1 [Example 52, (S)-3-(1-acryloylpyrrolidin-3-yl)-7-amino-1-(4-(3,5-difluorophenoxy)phenyl)-1,5-dihydro-4H-pyrazolo[3,4-d]pyridazin-4-one]",321
13,"C=CC(=O)N1CCC[C@@H](c2nn(-c3ccc(Oc4ccccc4F)cc3)c3c(N)n[nH]c(=O)c23)C1 [Example 53, (R)-3-(1-acryloylpiperidin-3-yl)-7-amino-1-(4-(2-fluorophenoxy)phenyl)-1,5-dihydro-4H-pyrazolo[3,4-d]pyridazin-4-one]",196
14,"C=CC(=O)N1CCC[C@@H](c2nn(-c3ccc(Oc4cccc(F)c4F)cc3)c3c(N)n[nH]c(=O)c23)C1 [Example 56, (R)-3-(1-acryloylpiperidin-3-yl)-7-amino-1-(4-(2,3-difluorophenoxy)phenyl)-1,5-dihydro-4H-pyrazolo[3,4-d]pyridazin-4-one]",42
15,"C=CC(=O)N1CCC[C@@H](c2nn(-c3ccc(Oc4c(F)cccc4F)cc3)c3c(N)n[nH]c(=O)c23)C1 [Example 57, (R)-3-(1-acryloylpiperidin-3-yl)-7-amino-1-(4-(2,6-difluorophenoxy)phenyl)-1,5-dihydro-4H-pyrazolo[3,4-d]pyridazin-4-one]",76
16,"C=CC(=O)N1CCC[C@@H](c2nn(-c3ccc(Oc4cc(F)cc(F)c4)cc3)c3c(N)n[nH]c(=O)c23)C1 [Example 58, (R)-3-(1-acryloylpiperidin-3-yl)-7-amino-1-(4-(3,5-difluorophenoxy)phenyl)-1,5-dihydro-4H-pyrazolo[3,4-d]pyridazin-4-one]",224
17,"C=CC(=O)N1CCC[C@H](c2nn(-c3ccc(Oc4ccccc4F)cc3)c3c(N)n[nH]c(=O)c23)C1 [Example 59, (S)-3-(1-acryloylpiperidin-3-yl)-7-amino-1-(4-(2-fluorophenoxy)phenyl)-1,5-dihydro-4H-pyrazolo [3,4-d]pyridazin-4-one]",248
18,"C=CC(=O)N1CCC[C@H](c2nn(-c3ccc(Oc4cccc(F)c4F)cc3)c3c(N)n[nH]c(=O)c23)C1 [Example 62, (S)-3-(1-acryloylpiperidin-3-yl)-7-amino-1-(4-(2,3-difluorophenoxy)phenyl)-1,5-dihydro-4H-pyrazolo[3,4-d]pyridazin-4-one]",147
19,"C=CC(=O)N1CCC[C@H](c2nn(-c3ccc(Oc4c(F)cccc4F)cc3)c3c(N)n[nH]c(=O)c23)C1 [Example 63, (S)-3-(1-acryloylpiperidin-3-yl)-7-amino-1-(4-(2,6-difluorophenoxy)phenyl)-1,5-dihydro-4H-pyrazolo[3,4-d]pyridazin-4-one]",189
20,"CC#CC(=O)N1CC[C@@H](c2nn(-c3ccc(Oc4ccccc4)cc3)c3c(N)n[nH]c(=O)c23)C1 [Example 65, (R)-7-amino-3-(1-(but-2-ynoyl)pyrrolidin-3-yl)-1-(4-phenoxyphenyl)-1,5-dihydro-4H-pyrazolo[3,4-d]pyridazin-4-one]",505
21,"CC#CC(=O)N1CC[C@H](c2nn(-c3ccc(Oc4ccccc4)cc3)c3c(N)n[nH]c(=O)c23)C1 [Example 66, (S)-7-amino-3-(1-(but-2-ynoyl)pyrrolidin-3-yl)-1-(4-phenoxyphenyl)-1,5-dihydro-4H-pyrazolo [3,4-d]pyridazin-4-one]",242
22,"CC#CC(=O)N1CC[C@@H](c2cn(-c3ccc(Oc4ccccc4)cc3)c3c(N)n[nH]c(=O)c23)C1 [Example 67, (S)-7-amino-3-(1-(but-2-ynoyl)pyrrolidin-3-yl)-1-(4-phenoxyphenyl)-1,5-dihydro-4H-pyrrolo [2,3-d]pyridazin-4-one]",205
23,"CC#CC(=O)N1CC[C@H](c2cn(-c3ccc(Oc4ccccc4)cc3)c3c(N)n[nH]c(=O)c23)C1 [Example 68, (R)-7-amino-3-(1-(but-2-ynoyl)pyrrolidin-3-yl)-1-(4-phenoxyphenyl)-1,5-dihydro-4H-pyrrolo [2,3-d]pyridazin-4-one]",146
24,"CC#CC(=O)N1CCC[C@@H](c2nn(-c3ccc(Oc4ccccc4)cc3)c3c(N)n[nH]c(=O)c23)C1 [Example 69, (R)-7-amino-3-(1-(but-2-ynoyl)piperidin-3-yl)-1-(4-phenoxyphenyl)-1,5-dihydro-4H-pyrazolo [3,4-d]pyridazin-4-one]",863
25,"CC#CC(=O)N1CCC[C@@H](c2cn(-c3ccc(Oc4ccccc4)cc3)c3c(N)n[nH]c(=O)c23)C1 [Example 71, (S)-7-amino-3-(1-(but-2-ynoyl)piperidin-3-yl)-1-(4-phenoxyphenyl)-1,5-dihydro-4H-pyrrolo[2,3-d]pyridazin-4-one]",228
26,"CC#CC(=O)N1CCC[C@H](c2cn(-c3ccc(Oc4ccccc4)cc3)c3c(N)n[nH]c(=O)c23)C1 [Example 72, (R)-7-amino-3-(1-(but-2-ynoyl)piperidin-3-yl)-1-(4-phenoxyphenyl)-1,5-dihydro-4H-pyrrolo[2,3-d]pyridazin-4-one]",260
27,"CC#CC(=O)N1CC[C@@H](c2nn(-c3ccc(Oc4ccccc4F)cc3)c3c(N)n[nH]c(=O)c23)C1 [Example 73, (R)-7-amino-3-(1-(but-2-ynoyl)pyrrolidin-3-yl)-1-(4-(2-fluorophenoxy)phenyl)-1,5-dihydro-4H-pyrazolo[3,4-d]pyridazin-4-one]",440
28,"CC#CC(=O)N1CC[C@H](c2nn(-c3ccc(Oc4ccccc4F)cc3)c3c(N)n[nH]c(=O)c23)C1 [Example 74, (S)-7-amino-3-(1-(but-2-ynoyl)pyrrolidin-3-yl)-1-(4-(2-fluorophenoxy)phenyl)-1,5-dihydro-4H-pyrazolo[3,4-d]pyridazin-4-one]",393
